Data as given in patent publication US11613527B2, “Enzyme inhibitors” (KalVista Pharmaceuticals Limited, priority 2019, dated 2023).
≈ marks a conversion by molar mass, not a printed value.

Columns and labels:
[1] = target: Human plasma kallikrein (Homo sapiens (Human), UniProt P03952); test: Determination of the IC50 for plasma kallikrein (fluorogenic substrate H-DPro-Phe-Arg-AFC); format: biochemical; details: class symbols A-D, read-out: IC50 (human PKal)
Method in brief: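 Enzyme from a commercial source was incubated at 25° C. with H-DPro-Phe-Arg-AFC substrate and a range of test compound concentrations. Residual activity was taken as the initial reaction rate, followed by absorbance change at 410 nm, and IC50 values were derived from it.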

[2] = Solubility after 24 hrs in Fasted State Simulated Intestinal Fluid (FaSSIF); format: physicochemical; details: Fasted State Simulated Intestinal Fluid (FaSSIF), thermodynamic from solid, 24 hrs at 37° C., nominal concentration 1 mg/mL (as free base)
Method: Selected compounds were further screened for solubility in Fasted State Simulated Intestinal Fluid (FaSSIF).
Approximately 1 mg of test compound is accurately weighed into a 2 mL vial. Volumes of the FaSSIF solution (pre-heated to 37° C.) were added to a vial to give a nominal concentration of 1 mg/mL (as free base). The FaSSIF solution was prepared on the day of use. The samples were vortexed before being placed in a Titramax 1000 shaker for 24 hrs at 37° C. and approximately 500 rpm. The samples were transferred to eppendorf tubes and centrifuged at 15,000 g (r.c.f.) for 10 min at 37° C. and analysed for concentration of test compound by LCMS.

[3] = target: Human FXIa (Homo sapiens (Human), UniProt P03951); test: Determination of the % inhibition for FXIa (fluorogenic substrate Z-Gly-Pro-Arg-AFC; 40 μM or IC50); format: biochemical
Chain of Human FXIa (P03951 388-625): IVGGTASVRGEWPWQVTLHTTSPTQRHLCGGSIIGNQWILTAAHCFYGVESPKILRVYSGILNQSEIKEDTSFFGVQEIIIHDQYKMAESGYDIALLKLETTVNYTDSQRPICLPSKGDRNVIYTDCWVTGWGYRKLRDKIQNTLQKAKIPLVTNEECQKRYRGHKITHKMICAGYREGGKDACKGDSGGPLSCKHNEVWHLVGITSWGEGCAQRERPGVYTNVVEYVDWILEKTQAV
Chain of Human FXIa (P03951 19-387 partner): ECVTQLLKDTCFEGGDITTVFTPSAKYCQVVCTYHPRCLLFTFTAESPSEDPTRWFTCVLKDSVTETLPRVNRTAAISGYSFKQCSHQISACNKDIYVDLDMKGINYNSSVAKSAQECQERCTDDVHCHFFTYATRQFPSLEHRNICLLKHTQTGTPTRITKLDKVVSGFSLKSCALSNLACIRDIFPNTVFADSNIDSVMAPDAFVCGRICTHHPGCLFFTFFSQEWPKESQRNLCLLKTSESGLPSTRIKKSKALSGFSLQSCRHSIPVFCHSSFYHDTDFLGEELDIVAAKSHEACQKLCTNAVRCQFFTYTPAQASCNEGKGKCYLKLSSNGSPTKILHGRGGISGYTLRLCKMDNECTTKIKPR
Method in brief: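 Human FXIa incubated at 25 °C with fluorogenic substrate Z-Gly-Pro-Arg-AFC and test compound at 40 μM for % inhibition, or a concentration series for IC50. Residual activity taken as initial rate from absorbance change at 410 nm.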

[4] = target: Human KLK1 (Homo sapiens (Human), UniProt P06870); test: Determination of the IC50 for KLK1 (fluorogenic substrate H-DVal-Leu-Arg-AFC); format: biochemical
Chain of Human KLK1 (P06870 25-262): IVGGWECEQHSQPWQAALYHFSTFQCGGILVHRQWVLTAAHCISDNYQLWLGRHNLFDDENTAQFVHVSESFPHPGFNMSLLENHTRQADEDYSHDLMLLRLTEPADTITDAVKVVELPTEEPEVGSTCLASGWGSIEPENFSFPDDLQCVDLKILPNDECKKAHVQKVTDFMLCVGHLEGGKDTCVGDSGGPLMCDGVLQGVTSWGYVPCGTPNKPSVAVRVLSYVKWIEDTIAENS
Method in brief: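 Human KLK1 incubated at 25° C. with fluorogenic substrate H-DVal-Leu-Arg-AFC and a range of test compound concentrations. Residual activity taken as initial reaction rate from absorbance change at 410 nm; IC50 derived from these rates.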

Chain of Human plasma kallikrein (P03952 391-638): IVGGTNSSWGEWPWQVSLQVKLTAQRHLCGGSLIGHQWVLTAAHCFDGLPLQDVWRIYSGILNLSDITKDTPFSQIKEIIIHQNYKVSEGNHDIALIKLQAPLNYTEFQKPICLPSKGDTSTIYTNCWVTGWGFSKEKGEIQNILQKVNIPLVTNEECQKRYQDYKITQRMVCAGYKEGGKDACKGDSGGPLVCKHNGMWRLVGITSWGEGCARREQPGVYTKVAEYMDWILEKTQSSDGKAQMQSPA
Chain of Human plasma kallikrein (P03952 20-390 partner): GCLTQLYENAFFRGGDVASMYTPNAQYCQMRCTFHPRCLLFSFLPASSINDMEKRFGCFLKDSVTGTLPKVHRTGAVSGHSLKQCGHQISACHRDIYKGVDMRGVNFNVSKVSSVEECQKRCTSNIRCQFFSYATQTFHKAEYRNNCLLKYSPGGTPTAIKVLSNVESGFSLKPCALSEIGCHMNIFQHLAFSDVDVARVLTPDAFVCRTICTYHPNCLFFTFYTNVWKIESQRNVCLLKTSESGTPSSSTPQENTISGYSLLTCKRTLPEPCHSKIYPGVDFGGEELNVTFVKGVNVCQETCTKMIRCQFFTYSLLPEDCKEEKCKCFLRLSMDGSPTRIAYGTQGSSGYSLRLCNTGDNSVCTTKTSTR

IC50 [1] [µM]	solubility at 24 h [2] [µg/mL]	IC50 [3] [µM]	IC50 [4] [µM]	Structure (SMILES)
< 0.01	730 (≈ 1380 µM)	> 40	> 40	COc1ccc(-n2cc(C)nn2)c(CNC(=O)c2cn(Cc3cc4n(n3)CCN(C)C4)nc2C(F)F)c1F [Example 136, 3-(difluoromethyl)-N-{[2-fluoro-3-methoxy-6-(4-methyl-1,2,3-triazol-1-yl)phenyl]methyl}-1-({5-methyl-4H,6H,7H-pyrazolo[1,5-a]pyrazin-2-yl}methyl)pyrazole-4-carboxamide]
0.01 to 0.03	> 1000	> 40	> 40	COCc1nc(C(=O)NCc2c(-n3cc(C)nn3)ccc(OC)c2F)cn1Cc1ccc2c(c1)CN(C(C)C)C2 [Example 147, N-{[2-fluoro-3-methoxy-6-(4-methyl-1,2,3-triazol-1-yl)phenyl]methyl}-1-[(2-isopropyl-1,3-dihydroisoindol-5-yl)methyl]-2-(methoxymethyl)imidazole-4-carboxamide]
0.01 to 0.03	900 (≈ 1600 µM)	> 40	> 40	COCc1nn(Cc2cnc3c(c2)CCN(C(C)C)C3)cc1C(=O)NCc1c(-n2cc(C)nn2)ccc(OC)c1F [Example 117, N-{[2-fluoro-3-methoxy-6-(4-methyl-1,2,3-triazol-1-yl)phenyl]methyl}-1-[(7-isopropyl-6,8-dihydro-5H-1,7-naphthyridin-3-yl)methyl]-3-(methoxymethyl)pyrazole-4-carboxamide]
0.01 to 0.03	> 1000	> 40	> 40	COCc1nn(Cc2ccc3c(c2)CCN(C2CCC2)C3)cc1C(=O)NCc1c(-n2cc(C)nn2)ccc(OC)c1F [Example 40, 1-[(2-cyclobutyl-3,4-dihydro-1H-isoquinolin-6-yl)methyl]-N-{[2-fluoro-3-methoxy-6-(4-methyl-1,2,3-triazol-1-yl)phenyl]methyl}-3-(methoxymethyl)pyrazole-4-carboxamide]
< 0.01	730 (≈ 1270 µM)	> 40	> 40	COCc1nn(Cc2ccc3c(c2)CCN(C(C)C)CC3)cc1C(=O)NCc1c(-n2cc(C)nn2)ccc(OC)c1F [Example 122, N-{[2-fluoro-3-methoxy-6-(4-methyl-1,2,3-triazol-1-yl)phenyl]methyl}-1-[(3-isopropyl-1,2,4,5-tetrahydro-3-benzazepin-7-yl)methyl]-3-(methoxymethyl)pyrazole-4-carboxamide]
< 0.01	20 (≈ 38.7 µM)	0.218	> 40	COCc1nn(Cc2ccc3nc(C)ccc3c2)cc1C(=O)NCc1c(-n2cnnn2)ccc(OC)c1F [RC2, N-{[2-fluoro-3-methoxy-6-(1,2,3,4-tetrazol-1-yl)phenyl]methyl}-3-(methoxymethyl)-1-[(2-methylquinolin-6-yl)methyl]pyrazole-4-carboxamide, reference compound]
< 0.01	10 (≈ 17.5 µM)	0.559	> 40	COCc1nn(Cc2cnc(N3CCCC3)nc2)cc1C(=O)NCc1c(-n2cc(C(F)F)nn2)ccc(OC)c1F [RC7, N-({6-[4-(difluoromethyl)-1,2,3-triazol-1-yl]-2-fluoro-3-methoxyphenyl}methyl)-3-(methoxymethyl)-1-{[2-(pyrrolidin-1-yl)pyrimidin-5-yl]methyl}pyrazole-4-carboxamide, reference compound]
0.01 to 0.03	> 1000	> 40	> 40	COc1ccc(-n2cc(C)nn2)c(CNC(=O)c2cn(Cc3ccc4c(n3)CCN(C)C4)nc2C(F)(F)F)c1F [Example 138, N-{[2-fluoro-3-methoxy-6-(4-methyl-1,2,3-triazol-1-yl)phenyl]methyl}-1-[(6-methyl-7,8-dihydro-5H-1,6-naphthyridin-2-yl)methyl]-3-(trifluoromethyl)pyrazole-4-carboxamide]
< 0.01	770 (≈ 1280 µM)	> 40	> 40	CCN1CCc2cc(Cn3cc(C(=O)NCc4c(-n5cnc(C(F)(F)F)n5)ccc(OC)c4F)c(COC)n3)ccc2C1 [Example 51, 1-[(2-ethyl-3,4-dihydro-1H-isoquinolin-6-yl)methyl]-N-({2-fluoro-3-methoxy-6-[3-(trifluoromethyl)-1,2,4-triazol-1-yl]phenyl}methyl)-3-(methoxymethyl)pyrazole-4-carboxamide]
< 0.01	930 (≈ 1690 µM)	9.9	> 40	COCc1nn(Cc2cc3c(cc2F)CCN(C)C3)cc1C(=O)NCc1c(-n2cc(C)nn2)ccc(OC)c1F [Example 118, 1-[(6-fluoro-2-methyl-3,4-dihydro-1H-isoquinolin-7-yl)methyl]-N-{[2-fluoro-3-methoxy-6-(4-methyl-1,2,3-triazol-1-yl)phenyl]methyl}-3-(methoxymethyl)pyrazole-4-carboxamide]
< 0.01	> 1000	> 40	> 40	CCN1CCc2ccc(Cn3cc(C(=O)NCc4c(-n5cnc(C(F)F)n5)ccc(OC)c4F)c(COC)n3)cc2C1 [Example 26, N-({6-[3-(difluoromethyl)-1,2,4-triazol-1-yl]-2-fluoro-3-methoxyphenyl}methyl)-1-[(2-ethyl-3,4-dihydro-1H-isoquinolin-7-yl)methyl]-3-(methoxymethyl)pyrazole-4-carboxamide]
< 0.01	870 (≈ 1480 µM)	> 40	> 40	COCc1nn(Cc2ccc3c(c2)CCN(C)C3)cc1C(=O)NCc1c(-n2cnc(C(F)(F)F)n2)ccc(OC)c1F [Example 42, N-({2-fluoro-3-methoxy-6-[3-(trifluoromethyl)-1,2,4-triazol-1-yl]phenyl}methyl)-3-(methoxymethyl)-1-[(2-methyl-3,4-dihydro-1H-isoquinolin-6-yl)methyl]pyrazole-4-carboxamide]
0.01 to 0.03	910 (≈ 1720 µM)	> 40	> 40	COc1ccc(-n2cc(C)nn2)c(CNC(=O)c2cn(Cc3ccc4c(c3)CN(C)CC4)c(C3CC3)n2)c1F [Example 149, 2-cyclopropyl-N-{[2-fluoro-3-methoxy-6-(4-methyl-1,2,3-triazol-1-yl)phenyl]methyl}-1-[(2-methyl-3,4-dihydro-1H-isoquinolin-7-yl)methyl]imidazole-4-carboxamide]
< 0.01	760 (≈ 1230 µM)	> 40	> 40	COCc1nn(Cc2ccc3c(c2)CN(C(C)C)CC3)cc1C(=O)NCc1c(-n2cnc(C(F)(F)F)n2)ccc(OC)c1F [Example 22, N-({2-fluoro-3-methoxy-6-[3-(trifluoromethyl)-1,2,4-triazol-1-yl]phenyl}methyl)-1-[(2-isopropyl-3,4-dihydro-1H-isoquinolin-7-yl)methyl]-3-(methoxymethyl)pyrazole-4-carboxamide]
< 0.01	1000 (≈ 1660 µM)	> 40	> 40	CCN1CCc2ccc(Cn3cc(C(=O)NCc4c(-n5cnc(C(F)(F)F)n5)ccc(OC)c4F)c(COC)n3)cc2C1 [Example 25, 1-[(2-ethyl-3,4-dihydro-1H-isoquinolin-7-yl)methyl]-N-({2-fluoro-3-methoxy-6-[3-(trifluoromethyl)-1,2,4-triazol-1-yl]phenyl}methyl)-3-(methoxymethyl)pyrazole-4-carboxamide]
< 0.01	> 1000	> 40	> 40	COc1ccc(-n2cc(C)nn2)c(CNC(=O)c2cncc(Cc3ccc4c(c3)CN(C)CC4)c2)c1F [Example 161, N-{[2-fluoro-3-methoxy-6-(4-methyl-1,2,3-triazol-1-yl)phenyl]methyl}-5-[(2-methyl-3,4-dihydro-1H-isoquinolin-7-yl)methyl]pyridine-3-carboxamide]
< 0.01	> 1000	> 40	> 40	COCc1nn(Cc2ccc3c(c2)CCN(C)C3)cc1C(=O)NCc1c(-n2cnc(C(F)F)n2)ccc(OC)c1F [Example 41, N-({6-[3-(difluoromethyl)-1,2,4-triazol-1-yl]-2-fluoro-3-methoxyphenyl}methyl)-3-(methoxymethyl)-1-[(2-methyl-3,4-dihydro-1H-isoquinolin-6-yl)methyl]pyrazole-4-carboxamide]
< 0.01	810 (≈ 1500 µM)	21.9	> 40	COc1ccc(-n2cc(C)nn2)c(CNC(=O)c2cn(Cc3cnc4c(c3)CCN(C)C4)nc2C(F)F)c1F [Example 137, 3-(difluoromethyl)-N-{[2-fluoro-3-methoxy-6-(4-methyl-1,2,3-triazol-1-yl)phenyl]methyl}-1-[(7-methyl-6,8-dihydro-5H-1,7-naphthyridin-3-yl)methyl]pyrazole-4-carboxamide]
